Source: ChEMBL document CHEMBL5579824, “Novel Hsp90-Targeting PROTACs: Enhanced synergy with cisplatin in combination therapy of cervical cancer” (Eur J Med Chem, 2024)
pIC50: −log10 of the molar value. Active and inactive are the calls of the source. The calls are words filed in the database; no cut-off is given here.

Columns and labels:
[1] = molecular target: T1, Protein cereblon/Heat shock protein HSP 90-alpha/Heat shock protein HSP 90-beta (Homo sapiens) (UniProt P07900+P08238+Q96SW2); assay: Protac activity at CRBN/Hsp90 in human SiHa cells assessed as decrease in AKT protein expression level incubated for 10 hrs by Western blot analysis; format: cell-based; conditions: dose 0.01-1 µM
SiHa [2] = assay: Induction of cell cycle arrest in human SiHa cells assessed as accumulation of cells at G1 pahse at 1 uM incubated after 48 hrs by PI staining based flow cytometry (reference value: 83.90 %); format: functional
SiHa [3] = assay: Synergistic antiproliferative activity against human SiHa cells assessed as combination index at 0.05 uM incubated for 72 hrs in presence of 0.01 uM cisplatin by CCK-8 assay; format: functional
[4] = molecular target: T1, Protein cereblon/Heat shock protein HSP 90-alpha/Heat shock protein HSP 90-beta (Homo sapiens); assay: Protac activity at CRBN/Hsp90 in human SiHa cells assessed as induction of Hsp90 degradation at 0.05 uM incubated for 2 hrs in presence of MG-132 by Western blot analysis; format: cell-based
SiHa [5] = assay: Induction of apoptosis in human SiHa cells assessed as viable cells at 2.5 uM incubated after 48 hrs by annexin V-FITC/PI staining based flow cytometry (reference value: 90.4 %); format: functional; conditions: read-out: Activity
SiHa [6] = assay: Induction of cell cycle arrest in human SiHa cells assessed as accumulation of cells at S pahse at 2.5 uM incubated after 48 hrs by PI staining based flow cytometry (reference value: 8.51 %); format: functional
SiHa [7] = assay: Synergistic antiproliferative activity against human SiHa cells assessed as combination index at 0.75 uM incubated for 72 hrs in presence of 0.01 uM cisplatin by CCK-8 assay; format: functional
[8] = molecular target: T1, Protein cereblon/Heat shock protein HSP 90-alpha/Heat shock protein HSP 90-beta (Homo sapiens); assay: Protac activity at CRBN/Hsp90 in human SiHa cells assessed as induction of Hsp90 degradation at 0.05 uM incubated for 2 hrs in presence of lenalidomide by Western blot analysis; format: cell-based
SiHa [9] = assay: Synergistic antiproliferative activity against human SiHa cells assessed as combination index at 1 uM incubated for 72 hrs in presence of 3.16 uM cisplatin by CCK-8 assay; format: functional
SiHa [10] = assay: Synergistic antiproliferative activity against human SiHa cells assessed as combination index at 1 uM incubated for 72 hrs in presence of 0.1 uM cisplatin by CCK-8 assay; format: functional
SiHa [11] = assay: Antitumor activity against human SiHa cells xenografted in BALB/c nude mouse assessed as reduction in Ki67 protein expression at 2 mg/kg, ip by immunohistochemical analysis; format: functional, organism-based
SiHa [12] = assay: Inhibition of cell migration in human SiHa cells at 0.5 uM measured after 48 hrs by microscope based wound healing assay relative to control; format: functional
SiHa [13] = assay: Induction of apoptosis in human SiHa cells assessed as necrotic cells at 2.5 uM incubated after 48 hrs by annexin V-FITC/PI staining based flow cytometry (reference value: 0.08 %); format: functional
SiHa [14] = assay: Synergistic antiproliferative activity against human SiHa cells assessed as combination index at 5 uM incubated for 72 hrs in presence of 0.1 uM cisplatin by CCK-8 assay; format: functional
SiHa [15] = assay: Synergistic antiproliferative activity against human SiHa cells assessed as combination index at 1 uM incubated for 72 hrs in presence of 0.03 uM cisplatin by CCK-8 assay; format: functional
SiHa [16] = assay: Induction of apoptosis in human SiHa cells assessed as necrotic cells at 10 uM incubated after 48 hrs by annexin V-FITC/PI staining based flow cytometry (reference value: 0.08 %); format: functional
SiHa [17] = assay: Synergistic antiproliferative activity against human SiHa cells assessed as combination index at 0.1 uM incubated for 72 hrs in presence of 0.03 uM cisplatin by CCK-8 assay; format: functional
SiHa [18] = assay: Induction of cell cycle arrest in human SiHa cells assessed as accumulation of cells at G1 pahse at 10 uM incubated after 48 hrs by PI staining based flow cytometry (reference value: 83.90 %); format: functional
SiHa [19] = assay: Induction of apoptosis in human SiHa cells assessed as late apoptotic cells at 0.05 uM incubated after 48 hrs by annexin V-FITC/PI staining based flow cytometry (reference value: 6.93 %); format: functional
[20] = molecular target: T1, Protein cereblon/Heat shock protein HSP 90-alpha/Heat shock protein HSP 90-beta (Homo sapiens); assay: Protac activity at CRBN/Hsp90 in human SiHa cells assessed as induction of Hsp90 degradation at 1 uM incubated for 8 to 10 hrs by Western blot analysis; format: cell-based; conditions: time 8-10 hrs
SiHa [21] = assay: Induction of apoptosis in human SiHa cells assessed as viable cells at 0.05 uM incubated after 48 hrs by annexin V-FITC/PI staining based flow cytometry (reference value: 90.4 %); format: functional; conditions: read-out: Activity
SiHa [22] = assay: Antiproliferative activity against human SiHa cells assessed as reduction in cell viability incubated for 72 hrs by CCK-8 assay; format: functional, cell-based
SiHa [23] = assay: Synergistic antiproliferative activity against human SiHa cells assessed as combination index at 1 uM incubated for 72 hrs in presence of 10 uM cisplatin by CCK-8 assay; format: functional
SiHa [24] = assay: Synergistic antiproliferative activity against human SiHa cells assessed as combination index at 5 uM incubated for 72 hrs in presence of 1 uM cisplatin by CCK-8 assay; format: functional
SiHa [25] = assay: Synergistic antiproliferative activity against human SiHa cells assessed as combination index at 1 uM incubated for 72 hrs in presence of 31.62 uM cisplatin by CCK-8 assay; format: functional
SiHa [26] = assay: Synergistic antiproliferative activity against human SiHa cells assessed as combination index at 10 uM incubated for 72 hrs in presence of 3.16 uM cisplatin by CCK-8 assay; format: functional
SiHa [27] = assay: Synergistic antiproliferative activity against human SiHa cells assessed as combination index at 10 uM incubated for 72 hrs in presence of 0.32 uM cisplatin by CCK-8 assay; format: functional
SiHa [28] = assay: Synergistic antiproliferative activity against human SiHa cells assessed as combination index at 5 uM incubated for 72 hrs in presence of 0.03 uM cisplatin by CCK-8 assay; format: functional
[29] = Toxicity in BALB/c nude mouse xenografted with human SiHa cells assessed as body weight weight loss at 2 mg/kg, ip co-treated with cisplatin separately for every two days; format: organism-based; conditions: in vivo
SiHa [30] = assay: Induction of apoptosis in human SiHa cells assessed as necrotic cells at 1 uM incubated after 48 hrs by annexin V-FITC/PI staining based flow cytometry (reference value: 0.08 %); format: functional
SiHa [31] = assay: Induction of apoptosis in human SiHa cells assessed as early apoptotic cells at 1 uM incubated after 48 hrs by annexin V-FITC/PI staining based flow cytometry (reference value: 2.05 %); format: functional
[32] = molecular target: T1, Protein cereblon/Heat shock protein HSP 90-alpha/Heat shock protein HSP 90-beta (Homo sapiens); assay: Protac activity at CRBN/Hsp90 in human SiHa cells assessed as decrease in HER2 protein expression level at 0.05 uM incubated for 10 hrs by Western blot analysis; format: cell-based
SiHa [33] = assay: Synergistic antiproliferative activity against human SiHa cells assessed as combination index at 0.1 uM incubated for 72 hrs in presence of 10 uM cisplatin by CCK-8 assay; format: functional
SiHa [34] = assay: Induction of cell cycle arrest in human SiHa cells assessed as accumulation of cells at G2/M pahse at 1 uM incubated after 48 hrs by PI staining based flow cytometry (reference value: 7.37 %); format: functional
SiHa [35] = assay: Synergistic antiproliferative activity against human SiHa cells assessed as combination index at 0.75 uM incubated for 72 hrs in presence of 10 uM cisplatin by CCK-8 assay; format: functional

Activity [1]: Dose-Dependent Effect
Activity [4]: inactive
Activity [8]: inactive
Activity [20]: Active
Activity [32]: Active
Structure (SMILES): CC1(C)CC(=O)c2c(C(F)(F)F)nn(-c3ccc(C(N)=O)c(N[C@H]4CC[C@H](OC(=O)CNC(=O)CCCCCCCNc5cccc6c5CN(C5CCC(=O)NC5=O)C6=O)CC4)c3)c2C1 (stereo not given in full)
Activity (SiHa [2]): 59.32%
CI (SiHa [3]): 1.83
viability at 2.5 µM (SiHa [5]): 55.3%
Activity (SiHa [6]): 21.18%
CI (SiHa [7]): 0.2
CI (SiHa [9]): 0.18
CI (SiHa [10]): 0.21
Activity (SiHa [11]): Active
inhibition at 0.5 µM (SiHa [12]): ~100%
Activity (SiHa [13]): 0.68%
CI (SiHa [14]): 1.01
CI (SiHa [15]): 0.22
Activity (SiHa [16]): 0.27%
CI (SiHa [17]): 0.49
Activity (SiHa [18]): 62.26%
Activity (SiHa [19]): 7.4%
viability at 0.05 µM (SiHa [21]): 90.1%
pIC50 (SiHa [22]): 7.30
CI (SiHa [23]): 0.17
CI (SiHa [24]): 0.84
CI (SiHa [25]): 0.27
CI (SiHa [26]): 1.45
CI (SiHa [27]): 1.89
CI (SiHa [28]): 1.02
Activity [29]: Non-Toxic
Activity (SiHa [30]): 0.29%
Activity (SiHa [31]): 16.5%
CI (SiHa [33]): 0.43
Activity (SiHa [34]): 27.12%
CI (SiHa [35]): 0.21
